Test results as given in publication PMC3184404 (The FEBS journal, 2011).
Read-outs that look alike come from different tables or passages of the source. Each block holds one compound with its values, some of them ahead of it.

Key:
[1] = target: T1, Bovine liver glutamate dehydrogenase (Bos taurus, UniProt P00366); test: Fluorescence titrations of reduced cofactor binding; conditions: NADPH, pH 8.0
immobilized trypsin = test: Control experiments with azocasein on immobilized protease; type: biochemical; conditions: azocasein as substrate, zinc at the concentrations used
[2] = target: T1, Bovine liver glutamate dehydrogenase; conditions: plus zinc
[3] = target: T1, Bovine liver glutamate dehydrogenase; conditions: pH 7.0, 1mM NAD^+
[4] = target: T1, Bovine liver glutamate dehydrogenase; test: Initial rate kinetics of oxidative deamination, zinc inhibition; type: biochemical
[5] = target: T1, Bovine liver glutamate dehydrogenase; test: Thermal stability by differential scanning calorimetry; type: binding
[6] = target: T1, Bovine liver glutamate dehydrogenase; conditions: cited from earlier work
[7] = enzyme + 20mM glutamate + zinc, pH 7.0
[8] = enzyme + 200mM norvaline + zinc, pH 7.0
[9] = enzyme + zinc, 0.1 M phosphate pH 7.0
[10] = enzyme + 200mM norvaline, pH 7.0
[11] = control experiments, data not shown

T1 sequence (P00366 58-558): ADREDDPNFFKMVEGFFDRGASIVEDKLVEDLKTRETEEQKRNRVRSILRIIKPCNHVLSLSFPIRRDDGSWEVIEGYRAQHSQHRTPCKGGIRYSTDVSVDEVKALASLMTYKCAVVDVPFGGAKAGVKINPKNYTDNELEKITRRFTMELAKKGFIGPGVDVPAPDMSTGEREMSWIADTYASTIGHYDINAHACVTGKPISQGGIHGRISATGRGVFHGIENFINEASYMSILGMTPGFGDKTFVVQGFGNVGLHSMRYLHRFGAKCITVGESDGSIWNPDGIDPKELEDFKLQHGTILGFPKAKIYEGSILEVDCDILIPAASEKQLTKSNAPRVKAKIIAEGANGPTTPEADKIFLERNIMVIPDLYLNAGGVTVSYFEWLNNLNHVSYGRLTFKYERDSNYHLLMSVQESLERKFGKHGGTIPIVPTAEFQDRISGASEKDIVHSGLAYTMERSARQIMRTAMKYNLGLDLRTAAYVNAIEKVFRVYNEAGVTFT

Structure (SMILES): NC(=O)C1=CN([C@@H]2O[C@H](COP(=O)(O)OP(=O)(O)OC[C@H]3O[C@@H](n4cnc5c(N)ncnc54)[C@H](OP(=O)(O)O)[C@@H]3O)[C@@H](O)[C@H]2O)C=CC1 [NADPH, Nicotinamide Adenine Dinucleotide Phosphate]
Kd ([1]; + 100 μM zinc): 1.04 µM
Kd ([1]; +20mM glutamate + 100 μM zinc): 1.72 µM
Kd ([1]; +20mM glutamate): 2.4 µM
Kd ([1]; +200mM norvaline + 100 μM zinc): 9.27 µM
Kd ([1]; +200mM norvaline): 7.35 µM
Kd ([1]; no additions): 6.33 µM

Structure (SMILES): CC(=O)[O-].CC(=O)[O-].[Zn+2] [Zinc, zinc acetate]
Effect on the immobilized protease (immobilized trypsin): did not effect
Fragment 3446 (residues 114–146) Peak Height relative to ACTH standard ([2]; 5 Mins, pH 8.0): 0.52
Fragment 4089 (residues 1–35) Peak Height relative to ACTH standard ([2]; 5 Mins, pH 8.0): 0
Fragment 34,645 (residues 144–459) Peak Height relative to Native ([2]; 5 Mins, pH 8.0): 0.17
Fragment 3446 (residues 114–146) Peak Height relative to ACTH standard ([2]; 10 Mins, pH 8.0): 0.54
Fragment 4089 (residues 1–35) Peak Height relative to ACTH standard ([2]; 10 Mins, pH 8.0): 0.16
Fragment 34,645 (residues 144–459) Peak Height relative to Native ([2]; 10 Mins, pH 8.0): 0.18
Fragment 3446 (residues 114–146) Peak Height relative to ACTH standard ([2]; 15 Mins, pH 8.0): 0.75
Fragment 4089 (residues 1–35) Peak Height relative to ACTH standard ([2]; 15 Mins, pH 8.0): 0.68
Fragment 34,645 (residues 144–459) Peak Height relative to Native ([2]; 15 Mins, pH 8.0): 0.86
Fragment 3446 (residues 114–146) Peak Height relative to ACTH standard ([2]; Time = 0, pH 8.0): 0
Fragment 4089 (residues 1–35) Peak Height relative to ACTH standard ([2]; Time = 0, pH 8.0): 0
Fragment 34,645 (residues 144–459) Peak Height relative to Native ([2]; Time = 0, pH 8.0): 0
Pre-Steady State Burst Amplitude ([3]; 50mM glutamate + 100μM zinc): 1.053 340F450
Pre-Steady State Burst Rate ([3]; 50mM glutamate + 100μM zinc): 0.858 340F450/sec
Steady State Rate ([3]; 50mM glutamate + 100μM zinc): 0.187 340F450/sec
Pre-Steady State Burst Amplitude ([3]; 50mM glutamate + 200μM zinc): 0.771 340F450
Pre-Steady State Burst Rate ([3]; 50mM glutamate + 200μM zinc): 0.972 340F450/sec
Steady State Rate ([3]; 50mM glutamate + 200μM zinc): 0.158 340F450/sec
Inhibition at saturating concentrations of substrates [4]: potent inhibitor
Inhibition of oxidative deamination with glutamate as substrate ([4]; pH 8): effective inhibition
Inhibition of oxidative deamination with norvaline as substrate ([4]; pH 8): no significant inhibition
TM [5, 7]: 59.3 °C
ΔH [5, 7]: 126.4
ΔS [5, 7]: 0.381
TM [5, 8]: 68.1 °C
ΔH [5, 8]: 179.9
ΔS [5, 8]: 0.528
TM [5, 9]: 59.2 °C
ΔH [5, 9]: 128.9
ΔS [5, 9]: 0.388

Structure (SMILES): [Cl-].[Cl-].[Cl-].[Eu+3] [Eu^3+, europium (III) chloride]
Effect on the ability of zinc to inhibit the enzyme [6]: reversed
Effect on the activity of the enzyme [6]: no effect

Other lines, results leading:

TM [5, 10]: 67.8 °C
ΔH [5, 10]: 188.7
ΔS [5, 10]: 0.554
Structure (SMILES): CCC[C@H](N)C(=O)O [Norvaline, norvaline]

Effect on the activity of the enzyme [4, 11]: no effect
Effect on the inhibition by zinc [4, 11]: no effect
Structure (SMILES): [Mg+2] [magnesium]
